Assay results taken from patent US20180244611A1, “Modulators of the Cystic Fibrosis Transmembrane Conductance Regulator Protein and Methods of Use” (AbbVie S.à.r.l., priority 2017, published 2018).

Experiments:
F508delCFTR [1] = biological target: T1, F508delCFTR (Homo sapiens, UniProt P13569, DEL508-508); experiment: Cell Surface Expression-Horse Radish Peroxidase (CSE-HRP) assay, test compound with co-corrector; format: cell-based; conditions: for Maximum % activity (with co-corrector): maximum at any tested concentration;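 for Maximum % activity (with co-corrector): percent of 2 µM positive control corrector over DMSO; co-corrector is that same compound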
T1 construct: expressed in transfected cells; host or cells: CFBE41o- human lung-derived epithelial cells (CFBE41o-F508delCFTR-HRP), doxycycline-inducible
T1 sequence (P13569 with tags, fused parts or gaps DEL508-508): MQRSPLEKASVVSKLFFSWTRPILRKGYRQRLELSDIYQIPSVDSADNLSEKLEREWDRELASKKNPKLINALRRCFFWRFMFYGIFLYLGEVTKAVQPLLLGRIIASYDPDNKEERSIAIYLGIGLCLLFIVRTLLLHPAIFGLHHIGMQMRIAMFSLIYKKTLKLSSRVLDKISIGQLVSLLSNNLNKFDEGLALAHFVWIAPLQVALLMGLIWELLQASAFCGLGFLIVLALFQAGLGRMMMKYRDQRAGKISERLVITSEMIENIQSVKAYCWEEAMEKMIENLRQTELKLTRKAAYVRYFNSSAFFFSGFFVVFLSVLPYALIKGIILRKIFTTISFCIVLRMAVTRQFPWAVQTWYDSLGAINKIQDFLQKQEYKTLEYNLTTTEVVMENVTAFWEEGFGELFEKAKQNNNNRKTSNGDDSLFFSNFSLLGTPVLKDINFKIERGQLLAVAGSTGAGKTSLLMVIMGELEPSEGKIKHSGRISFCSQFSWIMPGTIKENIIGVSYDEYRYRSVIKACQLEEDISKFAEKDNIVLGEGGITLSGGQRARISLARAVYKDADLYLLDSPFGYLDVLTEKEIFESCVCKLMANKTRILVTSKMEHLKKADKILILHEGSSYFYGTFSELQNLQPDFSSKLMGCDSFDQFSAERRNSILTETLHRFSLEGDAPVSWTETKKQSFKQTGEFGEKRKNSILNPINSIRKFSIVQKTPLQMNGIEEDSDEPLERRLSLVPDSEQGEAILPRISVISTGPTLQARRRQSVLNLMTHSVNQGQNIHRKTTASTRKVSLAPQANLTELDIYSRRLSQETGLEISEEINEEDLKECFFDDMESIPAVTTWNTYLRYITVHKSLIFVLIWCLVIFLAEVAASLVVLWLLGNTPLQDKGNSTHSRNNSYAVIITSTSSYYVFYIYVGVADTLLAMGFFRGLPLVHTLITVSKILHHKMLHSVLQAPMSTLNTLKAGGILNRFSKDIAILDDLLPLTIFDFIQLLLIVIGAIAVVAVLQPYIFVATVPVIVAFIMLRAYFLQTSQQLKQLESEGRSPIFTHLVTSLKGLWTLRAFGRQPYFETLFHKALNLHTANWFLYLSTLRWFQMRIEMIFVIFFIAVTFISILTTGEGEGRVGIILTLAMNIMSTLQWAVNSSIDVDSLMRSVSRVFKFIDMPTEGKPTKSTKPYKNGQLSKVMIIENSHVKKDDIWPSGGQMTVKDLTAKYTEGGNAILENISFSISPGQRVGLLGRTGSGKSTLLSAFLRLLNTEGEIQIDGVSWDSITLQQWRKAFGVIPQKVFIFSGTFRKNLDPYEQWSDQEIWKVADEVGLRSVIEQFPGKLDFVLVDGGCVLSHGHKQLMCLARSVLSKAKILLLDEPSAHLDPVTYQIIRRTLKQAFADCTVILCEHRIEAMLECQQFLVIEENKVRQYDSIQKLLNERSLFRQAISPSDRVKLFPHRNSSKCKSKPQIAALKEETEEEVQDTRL
Procedure, shortened: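 Surface-expression read-out: luminol luminescence from an HRP tag in the fourth exofacial loop of F508delCFTR, in doxycycline-induced (0.5 μg/mL, 72 h) CFBE41o- cells. Compound plus 2 μM co-corrector added for 18-24 h at 33° C., 8-point 3-fold series up to 20 μM. EC50 from a sigmoidal fit with variable Hill slope, normalised to positive control, triplicate plates.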

F508delCFTR [2] = biological target: T1, F508delCFTR; experiment: Cell Surface Expression-Horse Radish Peroxidase (CSE-HRP) assay, test compound without co-corrector; format: cell-based; conditions: for Emax: maximum at any tested concentration, without co-corrector; for EC50: test compound without co-corrector;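 for Emax: percent of on-plate 2 µM positive control corrector response over DMSO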
Procedure, shortened: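 Compound without co-corrector was tested at eight 3-fold concentrations, top 20 μM, for 18-24 h at 33° C on doxycycline-induced (0.5 μg/mL, 72 h) CFBE41o- F508delCFTR-HRP cells. After DPBS washes, luminol luminescence gave % activity relative to on-plate positive control minus DMSO; EC50 came from triplicate-plate sigmoidal fitting.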

[3] = normalized to positive control, with 2 μM co-corrector
[4] = CSE-HRP assay, test compound with 2 μM co-corrector
[5] = normalized to on-plate positive control, with 2 μM co-corrector
[6] = normalized to on-plate positive control

Structure (SMILES) | Maximum % activity (with co-corrector) (F508delCFTR [1]; [3]) | EC50 (F508delCFTR [1]; with 2 μM co-corrector) [µM] | Emax (F508delCFTR [2]; normalized to positive control) [%] | EC50 (F508delCFTR [2]) [µM] | EC50 (F508delCFTR [1]; [4]) [µM] | Maximum % activity (with co-corrector) (F508delCFTR [1]; [5]) | EC50 (F508delCFTR [2]; CSE-HRP assay) [µM] | Emax (F508delCFTR [2]; [6]) [%]
COc1cccc2c1CCC2C(=O)NS(=O)(=O)c1cncc(Br)c1 (centres unmarked) [III-65] | + (<150) | ≥ 10 | < 50 | ≥ 10 | – | – | – | –
COc1cccc2c1CCC2C(=O)NS(=O)(=O)c1ccc(O)nc1 (centres unmarked) [III-66] | + (<150) | ≥ 10 | < 50 | ≥ 10 | – | – | – | –
COc1cccc2c1CCC2C(=O)NS(=O)(=O)c1c(C(=O)OC(C)(C)C)c(C)nn1C (centres unmarked) [III-68] | + (<150) | ≥ 10 | < 50 | ≥ 10 | – | – | – | –
COc1cccc2c1CCC2C(=O)NS(=O)(=O)c1c(CO)c(C)nn1C (centres unmarked) [III-69] | + (<150) | ≥ 10 | < 50 | ≥ 10 | – | – | – | –
COc1cccc2c1CCC2C(=O)NS(=O)(=O)c1cccc(Cl)c1F (centres unmarked) [III-70] | + (<150) | ≥ 10 | < 50 | ≥ 10 | – | – | – | –
COc1cccc2c1CCC2C(=O)NS(=O)(=O)c1c(F)cccc1F (centres unmarked) [III-71] | ++ (≥150 and <350) | 3 to 10 | < 50 | ≥ 10 | – | – | – | –
COc1ccc2c(c1OC)CCC2C(=O)NS(=O)(=O)c1ccccc1C (centres unmarked) [III-72] | + (<150) | ≥ 10 | < 50 | ≥ 10 | – | – | – | –
COc1cccc2c1CCC2C(=O)NS(=O)(=O)c1cc(Cl)ccc1F (centres unmarked) [III-73] | + (<150) | ≥ 10 | < 50 | ≥ 10 | – | – | – | –
COc1cccc2c1CCC2C(=O)NS(=O)(=O)c1cc(F)ccc1F (centres unmarked) [III-74] | + (<150) | ≥ 10 | < 50 | ≥ 10 | – | – | – | –
COc1cccc2c1CCC2C(=O)NS(=O)(=O)c1cc(F)ccc1Cl (centres unmarked) [III-75] | + (<150) | ≥ 10 | < 50 | ≥ 10 | – | – | – | –
COc1cccc2c1CCC2C(=O)NS(=O)(=O)c1c(Cl)cccc1Cl (centres unmarked) [III-76] | + (<150) | ≥ 10 | < 50 | ≥ 10 | – | – | – | –
COc1cccc2c1CCC2C(=O)NS(=O)(=O)c1ccc(F)cc1F (centres unmarked) [III-77] | + (<150) | ≥ 10 | < 50 | ≥ 10 | – | – | – | –
COCCn1cc(S(=O)(=O)NC(=O)C2CCc3c(OC)cccc32)cn1 (centres unmarked) [III-78] | + (<150) | ≥ 10 | < 50 | ≥ 10 | – | – | – | –
COc1cccc2c1CCC2C(=O)NS(=O)(=O)c1c(C)noc1C (centres unmarked) [III-79] | + (<150) | ≥ 10 | < 50 | ≥ 10 | – | – | – | –
COc1cccc2c1CCC2C(=O)NS(=O)(=O)c1sc(C)nc1C (centres unmarked) [III-80] | + (<150) | ≥ 10 | < 50 | ≥ 10 | – | – | – | –
COc1cccc2c1CCC2C(=O)NS(=O)(=O)c1cccnc1 (centres unmarked) [III-81] | + (<150) | ≥ 10 | < 50 | ≥ 10 | – | – | – | –
COc1cccc2c1CCC2C(=O)NS(=O)(=O)c1ncccc1C(=O)N(C)C (centres unmarked) [III-82] | + (<150) | ≥ 10 | < 50 | ≥ 10 | – | – | – | –
COc1cccc2c1CCC2C(=O)NS(=O)(=O)c1cccnc1C#N (centres unmarked) [III-83] | + (<150) | ≥ 10 | < 50 | ≥ 10 | – | – | – | –
COc1cccc2c1CCC2C(=O)NS(=O)(=O)c1ccccn1 (centres unmarked) [III-84] | + (<150) | ≥ 10 | < 50 | ≥ 10 | – | – | – | –
COc1ccc(-c2cccc3c2CCC3C(=O)NS(=O)(=O)c2ccccc2C)cn1 (centres unmarked) [III-85] | ++ (≥150 and <350) | 3 to 10 | < 50 | ≥ 10 | – | – | – | –
Cc1ccccc1S(=O)(=O)NC(=O)C1CCc2c(-c3ccc(N4CCCCC4)nc3)cccc21 (centres unmarked) [III-86] | ++ (≥150 and <350) | < 3 | 50 to 150 | 3 to 10 | – | – | – | –
Cc1ccccc1S(=O)(=O)NC(=O)C1CCc2c(-c3ccc(N4CCN(C)CC4)nc3)cccc21 (centres unmarked) [III-87] | + (<150) | ≥ 10 | < 50 | ≥ 10 | – | – | – | –

Structure (SMILES) | Maximum % activity (with co-corrector) (F508delCFTR [1]; [3]) | EC50 (F508delCFTR [1]; with 2 μM co-corrector) [µM] | Emax (F508delCFTR [2]; normalized to positive control) [%] | EC50 (F508delCFTR [2]) [µM] | EC50 (F508delCFTR [1]; [4]) [µM] | Maximum % activity (with co-corrector) (F508delCFTR [1]; [5]) | EC50 (F508delCFTR [2]; CSE-HRP assay) [µM] | Emax (F508delCFTR [2]; [6]) [%]
Cc1ccccc1S(=O)(=O)NC(=O)C1CCc2c(-c3cccnc3C)cccc21 (centres unmarked) [III-88] | + (<150) | ≥ 10 | < 50 | ≥ 10 | – | – | – | –
Cc1ccccc1S(=O)(=O)NC(=O)C1CCc2c(-c3ccc(F)nc3)cccc21 (centres unmarked) [III-89] | ++ (≥150 and <350) | 3 to 10 | < 50 | ≥ 10 | – | – | – | –
Cc1ccccc1S(=O)(=O)NC(=O)C1CCc2c(-c3ccc(N(C)C)nc3)cccc21 (centres unmarked) [III-90] | + (<150) | ≥ 10 | < 50 | ≥ 10 | – | – | – | –
Cc1ccccc1S(=O)(=O)NC(=O)C1CCc2c(-c3cncc(F)c3)cccc21 (centres unmarked) [III-91] | – | – | – | – | ≥ 10 | + (<150) | ≥ 10 | < 50
Cc1cncc(-c2cccc3c2CCC3C(=O)NS(=O)(=O)c2ccccc2C)c1 (centres unmarked) [III-92] | – | – | – | – | ≥ 10 | + (<150) | ≥ 10 | < 50
Cc1ccccc1S(=O)(=O)NC(=O)C1CCc2c(-c3ccnc(F)c3)cccc21 (centres unmarked) [III-93] | – | – | – | – | 3 to 10 | ++ (≥150 and <350) | ≥ 10 | < 50
Cc1ccccc1S(=O)(=O)NC(=O)C1CCc2c(-c3ccncc3F)cccc21 (centres unmarked) [III-94] | – | – | – | – | 3 to 10 | ++ (≥150 and <350) | ≥ 10 | < 50
Cc1cnccc1-c1cccc2c1CCC2C(=O)NS(=O)(=O)c1ccccc1C (centres unmarked) [III-95] | – | – | – | – | ≥ 10 | + (<150) | ≥ 10 | < 50
Cc1cc(-c2cccc3c2CCC3C(=O)NS(=O)(=O)c2ccccc2C)ccn1 (centres unmarked) [III-96] | – | – | – | – | ≥ 10 | + (<150) | ≥ 10 | < 50
Cc1ccccc1S(=O)(=O)NC(=O)C1CCc2c(-c3cn[nH]c3)cccc21 (centres unmarked) [III-97] | – | – | – | – | ≥ 10 | + (<150) | ≥ 10 | < 50
Cc1ccccc1S(=O)(=O)NC(=O)C1CCc2c(-c3ccn[nH]3)cccc21 (centres unmarked) [III-98] | – | – | – | – | ≥ 10 | + (<150) | ≥ 10 | < 50
Cc1ccccc1S(=O)(=O)NC(=O)C1CCc2c(-c3ccsc3)cccc21 (centres unmarked) [III-99] | – | – | – | – | 3 to 10 | +++ (≥350) | 3 to 10 | 50 to 150
Cc1ccccc1S(=O)(=O)NC(=O)C1CCc2c(-c3ccc(N4CCOCC4)nc3)cccc21 (centres unmarked) [III-100] | – | – | – | – | 3 to 10 | + (<150) | ≥ 10 | < 50
Cc1ccccc1S(=O)(=O)NC(=O)C1CCc2c(-c3c[nH]nc3C)cccc21 (centres unmarked) [III-101] | – | – | – | – | ≥ 10 | + (<150) | ≥ 10 | < 50
Cc1ccccc1S(=O)(=O)NC(=O)C1CCc2c(-c3cnn(C)c3)cccc21 (centres unmarked) [III-102] | – | – | – | – | ≥ 10 | + (<150) | ≥ 10 | < 50
Cc1ccc(-c2cccc3c2CCC3C(=O)NS(=O)(=O)c2ccccc2C)o1 (centres unmarked) [III-103] | – | – | – | – | 3 to 10 | ++ (≥150 and <350) | ≥ 10 | < 50
Cc1ccccc1S(=O)(=O)NC(=O)C1CCc2c(-c3c(C)nn(C)c3C)cccc21 (centres unmarked) [III-105] | – | – | – | – | ≥ 10 | + (<150) | ≥ 10 | < 50
Cc1ccccc1S(=O)(=O)NC(=O)C1CCc2c(-c3ccnn3C)cccc21 (centres unmarked) [III-106] | – | – | – | – | ≥ 10 | + (<150) | ≥ 10 | < 50
COc1cccc2c1CCC[C@H]2C(=O)NS(=O)(=O)c1cccnc1N [III-107] | – | – | – | – | 3 to 10 | +++ (≥350) | 3 to 10 | 50 to 150
Cc1ccc2c(c1)CCC2(C)C(=O)NS(=O)(=O)c1cccc(N)n1 (centres unmarked) [III-108] | – | – | – | – | 3 to 10 | ++ (≥150 and <350) | 3 to 10 | 50 to 150
COc1cccc2c1CCC[C@H]2C(=O)NS(=O)(=O)c1cccc(N)n1 [III-109] | – | – | – | – | ≥ 10 | + (<150) | ≥ 10 | < 50
Nc1cccc(S(=O)(=O)NC(=O)C2CCCc3cccc(Cl)c32)n1 (centres unmarked) [III-110] | – | – | – | – | ≥ 10 | + (<150) | ≥ 10 | < 50
